Consider 1 compound from patent US8063029B2, “Pharmaceutical composition” (FCB I LLC, priority 2002, dated 2011).

Data set [1] is described as follows: Solubility / miscibility in carrier fluids. It counts as physicochemical. The source says:
In such situations, when the first fluid evaporates, the compound of interest is left in a supersaturated environment in which it is favorable for the compound to pass into a less saturated environment, in this case through the membrane. […] Accordingly, if increased flux for oxacyclohexadecan-2-one is desired, a carrier may include ethanol and propylene glycol and/or water. […] Accordingly, if increased flux for testosterone is desired, a carrier may include ethanol and water or ethanol and propylene glycol. In addition, water may be used to prevent “reverse-flux”, or the flow of water from the membrane into the matrix of the composition.

The conditions of data set [2]: in vivo; cited from earlier work.

Take `C[C@]12CC[C@H]3[C@@H](CCC4=CC(=O)CC[C@@]43C)[C@@H]1CC[C@@H]2O` [testosterone, 17β-hydroxyandrost-4-en-3-one]: the solubility / miscibility entry was “soluble” in data set [1] (in ethanol), “partially soluble” in data set [1] (in propylene glycol) and “not soluble” in data set [1] (in water). In data set [2], the “typical half-life in the blood serum” value was 10 to 100 min.
